± gives the standard deviation of the averaged measurements.
Tests used:
SAPACITABINE = compound: CCCCCCCCCCCCCCCC(=O)Nc1ccn([C@@H]2O[C@H](CO)[C@@H](O)[C@@H]2C#N)c(=O)n1 [SAPACITABINE]; assay: surviving fraction relative to DMSO-only wells; higher = less growth inhibition; details: exposure time: 5 days
Summary of the method: (§1)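 For each tumour cell line, log-phase cells were put into 384-well plates at 250–500 cells per well, then after 24 hours exposed continuously for five days to inhibitors at 0.5, 1, 5, 10, 50, 100, 500 and 1000 nM. Viability was assessed by CellTiter-Glo luminescence, with surviving fraction expressed relative to the median of DMSO-only wells. Lines were screened three times and retained only if replicate Pearson r exceeded 0.7 and median Z' exceeded 0.3.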

TIOGUANINE = compound: Nc1nc2[nH]cnc2c(=S)[nH]1 [TIOGUANINE]; assay: as above; details: exposure time: 5 days
Summary of the method: as §1

Test System | surviving fraction (SAPACITABINE; 0.5 nM) | surviving fraction (SAPACITABINE; 1 nM) | surviving fraction (SAPACITABINE; 5 nM) | surviving fraction (SAPACITABINE; 10 nM) | surviving fraction (SAPACITABINE; 50 nM) | surviving fraction (SAPACITABINE; 100 nM) | surviving fraction (SAPACITABINE; 500 nM) | surviving fraction (SAPACITABINE; 1000 nM) | surviving fraction (TIOGUANINE; 0.5 nM) | surviving fraction (TIOGUANINE; 1 nM) | surviving fraction (TIOGUANINE; 5 nM) | surviving fraction (TIOGUANINE; 10 nM) | surviving fraction (TIOGUANINE; 50 nM) | surviving fraction (TIOGUANINE; 100 nM) | surviving fraction (TIOGUANINE; 500 nM) | surviving fraction (TIOGUANINE; 1000 nM)
MFM223 BREAST | 0.839 ± 0.092 | 0.82 ± 0.11 | 0.83 ± 0.089 | 0.8 ± 0.045 | 0.933 ± 0.12 | 0.939 ± 0.026 | 0.903 ± 0.074 | 0.77 ± 0.1 | 1.01 ± 0.13 | 0.997 ± 0.062 | 1.09 ± 0.037 | 1.041 ± 0.009 | 1.13 ± 0.031 | 1.13 ± 0.045 | 1.05 ± 0.074 | 1 ± 0.068
MHM BONE | 0.975 ± 0.036 | 0.97 ± 0.058 | 0.978 ± 0.034 | 0.996 ± 0.028 | 0.951 ± 0.027 | 0.789 ± 0.043 | 0.305 ± 0.012 | 0.262 ± 0.03 | 0.987 ± 0.028 | 0.9777 ± 0.0058 | 1.01 ± 0.024 | 0.986 ± 0.011 | 1.026 ± 0.0069 | 1.039 ± 0.0067 | 0.983 ± 0.028 | 0.999 ± 0.018
NCIH441 LUNG | 1.042 ± 0.009 | 0.975 ± 0.077 | 1.02 ± 0.036 | 0.913 ± 0.034 | 0.53 ± 0.023 | 0.363 ± 0.051 | 0.34 ± 0.025 | 0.312 ± 0.023 | 0.963 ± 0.053 | 1.03 ± 0.082 | 0.971 ± 0.032 | 0.955 ± 0.079 | 1.03 ± 0.024 | 1.02 ± 0.017 | 1.01 ± 0.091 | 0.976 ± 0.058
OS25HAL BONE | 0.868 ± 0.022 | 0.8983 ± 0.0076 | 0.834 ± 0.0066 | 0.855 ± 0.059 | 0.974 ± 0.036 | 0.925 ± 0.015 | 0.293 ± 0.019 | 0.15 ± 0.014 | 0.943 ± 0.015 | 0.951 ± 0.017 | 0.967 ± 0.0017 | 0.933 ± 0.027 | 1 ± 0.024 | 1.01 ± 0.033 | 1.002 ± 0.0066 | 0.955 ± 0.032
OSHN BONE | 0.902 ± 0.034 | 0.917 ± 0.024 | 0.92 ± 0.013 | 0.891 ± 0.014 | 0.998 ± 0.02 | 0.928 ± 0.011 | 0.345 ± 0.032 | 0.158 ± 0.011 | 1.01 ± 0.037 | 1.02 ± 0.026 | 1.01 ± 0.035 | 1.02 ± 0.034 | 1.02 ± 0.048 | 1.04 ± 0.038 | 1.01 ± 0.039 | 0.9787 ± 0.007
PCI30 HEADNECK | 0.899 ± 0.053 | 0.916 ± 0.046 | 0.946 ± 0.039 | 0.984 ± 0.051 | 0.965 ± 0.027 | 0.801 ± 0.023 | 0.555 ± 0.028 | 1.05 ± 0.13 | 0.892 ± 0.097 | 0.847 ± 0.013 | 0.978 ± 0.097 | 1.02 ± 0.047 | 1.02 ± 0.063 | 1.03 ± 0.016 | 0.918 ± 0.045 | 0.88 ± 0.072
SAOS2 BONE | 0.806 ± 0.032 | 0.811 ± 0.019 | 0.875 ± 0.029 | 0.779 ± 0.057 | 0.776 ± 0.013 | 0.566 ± 0.071 | 0.199 ± 0.018 | 0.153 ± 0.017 | 1 ± 0.024 | 0.966 ± 0.031 | 1.034 ± 0.0081 | 0.937 ± 0.096 | 1.15 ± 0.014 | 1.15 ± 0.097 | 1.02 ± 0.027 | 1.01 ± 0.047
SCC003 HEADNECK | 0.85 ± 0.04 | 0.797 ± 0.068 | 0.885 ± 0.028 | 0.784 ± 0.047 | 1.05 ± 0.041 | 0.879 ± 0.026 | 0.481 ± 0.003 | 0.339 ± 0.014 | 0.892 ± 0.14 | 1 ± 0.1 | 1.01 ± 0.033 | 0.99 ± 0.094 | 0.998 ± 0.098 | 1.1 ± 0.12 | 0.988 ± 0.047 | 0.797 ± 0.027
SCC36 HEADNECK | 0.776 ± 0.055 | 0.793 ± 0.048 | 0.815 ± 0.05 | 0.797 ± 0.11 | 1.02 ± 0.16 | 0.939 ± 0.092 | 0.737 ± 0.064 | 0.577 ± 0.0091 | 1.03 ± 0.034 | 1.09 ± 0.028 | 1.16 ± 0.074 | 1.18 ± 0.078 | 1.24 ± 0.082 | 1.12 ± 0.091 | 1.13 ± 0.11 | 1.06 ± 0.1
SCC47 HEADNECK | 0.937 ± 0.093 | 0.939 ± 0.063 | 0.982 ± 0.063 | 0.948 ± 0.072 | 1.05 ± 0.057 | 0.988 ± 0.079 | 0.71 ± 0.033 | 0.597 ± 0.0027 | 0.796 ± 0.02 | 0.834 ± 0.05 | 0.969 ± 0.043 | 0.961 ± 0.061 | 0.98 ± 0.035 | 0.966 ± 0.045 | 0.854 ± 0.082 | 0.803 ± 0.039
SG27 HEADNECK | 1.05 ± 0.027 | 1.01 ± 0.041 | 1 ± 0.16 | 0.731 ± 0.054 | 0.97 ± 0.021 | 0.975 ± 0.075 | 0.999 ± 0.025 | 0.885 ± 0.022 | 0.982 ± 0.054 | 0.995 ± 0.12 | 1.04 ± 0.091 | 0.984 ± 0.13 | 1 ± 0.089 | 1.02 ± 0.12 | 1.11 ± 0.024 | 0.953 ± 0.13
SG28 HEADNECK | 0.756 ± 0.14 | 0.629 ± 0.18 | 0.721 ± 0.26 | 0.216 ± 0.099 | 0.996 ± 0.12 | 0.864 ± 0.054 | 0.934 ± 0.11 | 0.422 ± 0.0014 | 1.07 ± 0.045 | 1.05 ± 0.14 | 1.01 ± 0.14 | 0.994 ± 0.076 | 1.06 ± 0.089 | 1.05 ± 0.12 | 1.02 ± 0.038 | 1.14 ± 0.082
SG31 HEADNECK | 0.933 ± 0.053 | 0.946 ± 0.043 | 0.814 ± 0.079 | 0.464 ± 0.015 | 0.919 ± 0.071 | 0.947 ± 0.16 | 0.792 ± 0.072 | 0.642 ± 0.033 | 0.97 ± 0.023 | 1 ± 0.085 | 1 ± 0.16 | 1.01 ± 0.18 | 0.986 ± 0.073 | 0.871 ± 0.1 | 1.2 ± 0.25 | 0.928 ± 0.17
